Molecular target: MAPKAPK2 (Homo sapiens, UniProt P49137)
Test: HTS ATP-utilizing enzyme assay, off-chip mobility-shift (Caliper HTS 250)
Assay type: biochemical
Details: test compound 10 μM, kinase listed = active (greater than six-sigma from the mean activity of inactive compounds)
Description: The following procedures describe the reagent and plate preparation for a HTS of an ATP-utilizing enzyme, such as a protein kinase, run in an off-chip mobility-shift assay format. The following provides an HTS protocol for running a protein kinase HTS screen on a Caliper HTS 250 microfluidics system. The following parameters are dependent on the protein kinase used and can be determined by one skilled in the art as part of a typical assay development process. For example, the peptide substrate used can be identified from the current literature, by screening a peptide library of potential protein kinase substrates, or by other applicable means accepted in the field.
The following table provides typical screen assay parameters appropriate for a Caliper HTS 250 microfluidics system.
The reagents and buffers listed in the following table are generally applicable for developing and running an HTS screen on a human protein kinase using the Caliper HTS 250 system.
The following reagents were prepared using the previously described buffers.
A 2× Master Buffer solution was prepared by combining 200 mL of 1 M HEPES, pH 7.5, 2 mL of 10% Triton X-100, 20 mL of 10% BSA, and 778 mL of H2O.
A TCB Buffer solution was prepared by combining 125 mL of 2× Master Buffer, 10 mL of 0.5 M EDTA, 6.25 mL of 4% coating reagent, 1.01 mL of 100% DMSO, and 107.74 mL H2O.
Assays to determine the kinase inhibitory activity of compounds of the present disclosure were performed using a Caliper HTS 250 microfluidics device, Greiner U-bottom assay plates, a Multidrop for transfer of reagents, and Biomek FX (AMNCBM03) software. Initially, 2.4 μL of a 1 mM solution of a test compound in 100% DMSO was added to a well of the Greiner U-bottom plate. A single Greiner U-bottom plate having 24×16 wells could include multiple test compounds. […] Using the Biomek FX, 10 μL of 0.5 M EDTA was added by the span-8 to wells, indicated as 100% Control and 2.4 μL of 100% DMSO was added by the span-8 to wells, indicated as 0% Control. […] The total reaction volume in each well was 25 μL, and the concentration of the test compound was 10 μM. The assay plate was incubated for 2.5 hrs at 20° C. to 22° C. […] The inhibition of the ATP-utilizing enzyme, such as a particular protein kinase, was determined by measuring the ratio of the peptide substrate to phosphorylated product for each well of the assay plate using the Caliper HTS 250 system.
The use of six-sigma statistical limits represents a conservative method for declaring potential hits among targets. The six-sigma activity, as well as the mean population activity, can be different for each target enzyme.

MAPKAPK2, sequence (P49137 whole entry): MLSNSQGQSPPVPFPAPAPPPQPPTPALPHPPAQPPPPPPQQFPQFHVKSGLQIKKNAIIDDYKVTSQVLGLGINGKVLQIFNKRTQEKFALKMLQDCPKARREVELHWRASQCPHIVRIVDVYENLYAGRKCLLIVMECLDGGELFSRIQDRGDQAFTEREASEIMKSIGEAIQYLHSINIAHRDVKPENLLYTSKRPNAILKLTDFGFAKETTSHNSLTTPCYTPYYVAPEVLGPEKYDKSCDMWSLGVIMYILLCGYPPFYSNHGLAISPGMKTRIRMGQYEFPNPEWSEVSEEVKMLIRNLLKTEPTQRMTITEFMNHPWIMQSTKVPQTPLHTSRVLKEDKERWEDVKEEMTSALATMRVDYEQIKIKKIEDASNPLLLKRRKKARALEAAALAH

Structure (SMILES)	Activity
COc1ccc(-c2ccc3nccc(Nc4ccc(N5CCC(N(C)C)C5)cc4)c3c2)cc1 (stereo not shown) [N-(4-(3-(dimethylamino)pyrrolidin-1-yl)phenyl)-6-(4-methoxyphenyl)quinolin-4-amine]	MAPKAPK2
CN(C)CC1CCCN1c1ccc(Nc2ccnc3ccc(-c4ccc(C#N)cc4)cc23)cc1 (stereo not shown) [4-(4-(4-(2-((dimethylamino)methyl)pyrrolidin-1-yl)phenylamino)quinolin-6-yl)benzonitrile]	MAPKAPK2
CN1CCC(N(C)c2ccc(Nc3ccnc4ccc(-c5cnc6ccccc6c5)cc34)cc2)C1 (stereo not shown) [N1-(3,6′-biquinolin-4′-yl)-N4-methyl-N4-(1-methylpyrrolidin-3-yl)benzene-1,4-diamine]	MAPKAPK2
Cc1ccc(-c2ccc3nccc(Nc4ccc(N(C)C5CCN(C)C5)cc4)c3c2)nc1 (stereo not shown) [N1-methyl-N4-(6-(5-methylpyridin-2-yl)quinolin-4-yl)-N1-(1-methylpyrrolidin-3-yl)benzene-1,4-diamine]	MAPKAPK2
CN(C)C1CCN(c2ccc(Nc3ccnc4ccc(-c5ccc(Cl)cc5)cc34)cc2)C1 (stereo not shown) [6-(4-chlorophenyl)-N-(4-(3-(dimethylamino)pyrrolidin-1-yl)phenyl)quinolin-4-amine]	MAPKAPK2
CN(C)C1CCN(c2ccc(Nc3ccnc4ccc(-c5cncc(C(=O)O)c5)cc34)cc2)C1 (stereo not shown) [5-(4-(4-(3-(dimethylamino)pyrrolidin-1-yl)phenylamino)quinolin-6-yl)nicotinic acid]	MAPKAPK2
CCN1CCN(c2ccc(Nc3ccnc4ccc(-c5ccc(OC)cc5)cc34)cc2)CC1 [N-(4-(4-ethylpiperazin-1-yl)phenyl)-6-(4-methoxyphenyl)quinolin-4-amine]	MAPKAPK2
COCCN1CCN(c2ccc(Nc3ccnc4ccc(-c5ccccc5)cc34)cc2)CC1 [N-(4-(4-(2-methoxyethyl)piperazin-1-yl)phenyl)-6-phenylquinolin-4-amine]	MAPKAPK2
CN(C)C1CCN(c2ccc(Nc3ccnc4ccc(-c5ccc(Cl)c(Cl)c5)cc34)cc2)C1 (stereo not shown) [6-(3,4-dichlorophenyl)-N-(4-(3-(dimethylamino)pyrrolidin-1-yl)phenyl)quinolin-4-amine]	MAPKAPK2
CN1CCN(c2ccc(Oc3ccnc4ccc(-c5ccc(Cl)cc5)cc34)cc2)CC1 [6-(4-chlorophenyl)-4-(4-(4-methylpiperazin-1-yl)phenoxy)quinoline]	MAPKAPK2
CN(C)Cc1ccccc1-c1ccc2nccc(Nc3ccc(N4CCN(C)CC4)cc3)c2c1 [6-(2-((dimethylamino)methyl)phenyl)-N-(4-(4-methylpiperazin-1-yl)phenyl)quinolin-4-amine]	MAPKAPK2
CN(C)[C@@H]1CCN(c2ccc(Nc3ccnc4ccc(-c5ccc6ccccc6c5)cc34)cc2)C1 [(R)-N-(4-(3-(dimethylamino)pyrrolidin-1-yl)phenyl)-6-(naphthalen-2-yl)quinolin-4-amine]	MAPKAPK2
CN(C)C1CCN(c2ccc(Nc3ccnc4ccc(-c5nccs5)cc34)cc2)C1 (stereo not shown) [N-(4-(3-(dimethylamino)pyrrolidin-1-yl)phenyl)-6-(thiazol-2-yl)quinolin-4-amine]	MAPKAPK2
CCCN(c1ccc(N2CCN(C)CC2)cc1)c1ccnc2ccc(-c3ccc(OC)cc3)cc12 [6-(4-methoxyphenyl)-N-(4-(4-methylpiperazin-1-yl)phenyl)-N-propylquinolin-4-amine]	MAPKAPK2
COc1ccc(-c2ccc3nccc(Nc4ccc(N5CCN(CCC#N)CC5)cc4)c3c2)cc1 [3-(4-(4-(6-(4-methoxyphenyl)quinolin-4-ylamino)phenyl)piperazin-1-yl)propanenitrile]	MAPKAPK2
CN(Cc1ccccc1)C1CCN(c2ccc(Nc3ccnc4ccc(-c5ccc(C#N)cc5)cc34)cc2)C1 (stereo not shown) [4-(4-(4-(3-(benzyl(methyl)amino)pyrrolidin-1-yl)phenylamino)quinolin-6-yl)benzonitrile]	MAPKAPK2
COc1ccc(-c2ccc3nccc(Nc4ccc(N5CCN(CC(=O)N(C)C)CC5)cc4)c3c2)cc1 [2-(4-(4-(6-(4-methoxyphenyl)quinolin-4-ylamino)phenyl)piperazin-1-yl)-N,N-dimethylacetamide]	MAPKAPK2

Structure (SMILES)	Activity
COCCN1CCN(c2ccc(Nc3ccnc4ccc(-c5ccc(C#N)cc5)cc34)cc2)CC1 [4-(4-(4-(4-(2-methoxyethyl)piperazin-1-yl)phenylamino)quinolin-6-yl)benzonitrile]	MAPKAPK2
CN1CCN(c2ccc(Nc3ccnc4ccc(-c5cc(C(F)(F)F)cc(C(F)(F)F)c5)cc34)cc2)CC1 [6-(3,5-bis(trifluoromethyl)phenyl)-N-(4-(4-methylpiperazin-1-yl)phenyl)quinolin-4-amine]	MAPKAPK2
CN(C)C1CCN(c2ccc(Nc3ccnc4ccc(-c5ccc6ccccc6c5)cc34)cc2)C1 (stereo not shown) [N-(4-(3-(dimethylamino)pyrrolidin-1-yl)phenyl)-6-(naphthalen-2-yl)quinolin-4-amine]	MAPKAPK2
CCC(CC)N1CCN(c2ccc(Nc3ccnc4ccc(-c5ccc(C#N)cc5)cc34)cc2)CC1 [4-(4-(4-(4-(pentan-3-yl)piperazin-1-yl)phenylamino)quinolin-6-yl)benzonitrile]	MAPKAPK2
CN(C)C1CCN(c2ccc(Nc3ccnc4ccc(-c5ccc(C#N)c(F)c5)cc34)cc2)C1 (stereo not shown) [4-(4-(4-(3-(dimethylamino)pyrrolidin-1-yl)phenylamino)quinolin-6-yl)-2-fluorobenzonitrile]	MAPKAPK2
Cc1cc(-c2ccc3nccc(Nc4ccc(N5CCC(N(C)C)C5)cc4)c3c2)ccc1F (stereo not shown) [N-(4-(3-(dimethylamino)pyrrolidin-1-yl)phenyl)-6-(4-fluoro-3-methylphenyl)quinolin-4-amine]	MAPKAPK2
OCCN1CCN(c2ccc(Nc3ccnc4ccc(-c5ccccc5)cc34)cc2)CC1 [2-(4-(4-(6-phenylquinolin-4-ylamino)phenyl)piperazin-1-yl)ethanol]	MAPKAPK2
CN1CCN(c2ccc(Nc3ccnc4ccc(-c5ccc(C#N)cc5)cc34)nn2)CC1 [4-(4-(6-(4-methylpiperazin-1-yl)pyridazin-3-ylamino)quinolin-6-yl)benzonitrile]	MAPKAPK2
CN1CCN(c2ccc(Oc3ccnc4ccc(-c5ccc(C#N)cc5)cc34)cc2)CC1 [4-(4-(4-(4-methylpiperazin-1-yl)phenoxy)quinolin-6-yl)benzonitrile]	MAPKAPK2
CC(=O)N1CCc2cc(-c3ccc4nccc(Nc5ccc(N6CCC(N(C)C)C6)cc5)c4c3)ccc21 (stereo not shown) [1-(5-(4-(4-(3-(dimethylamino)pyrrolidin-1-yl)phenylamino)quinolin-6-yl)indolin-1-yl)ethanone]	MAPKAPK2
N#Cc1ccc(-c2ccc3nccc(Nc4ccc(N5CCN(CCO)CC5)cc4)c3c2)cc1 [4-(4-(4-(4-(2-hydroxyethyl)piperazin-1-yl)phenylamino)quinolin-6-yl)benzonitrile]	MAPKAPK2
CN1CCN(c2ccc(Nc3ccnc4ccc(-c5ccc(Cl)s5)cc34)cc2)CC1 [6-(5-chlorothiophen-2-yl)-N-(4-(4-methylpiperazin-1-yl)phenyl)quinolin-4-amine]	MAPKAPK2
CCN(CC)C1CCN(c2ccc(Nc3ccnc4ccc(-c5ccc6ccccc6c5)cc34)cc2)C1 (stereo not shown) [N-(4-(3-(diethylamino)pyrrolidin-1-yl)phenyl)-6-(naphthalen-2-yl)quinolin-4-amine]	MAPKAPK2
CN(C)C1CCN(c2ccc(Nc3ccnc4ccc(-c5ccc6cc[nH]c6c5)cc34)cc2)C1 (stereo not shown) [N-(4-(3-(dimethylamino)pyrrolidin-1-yl)phenyl)-6-(1H-indol-6-yl)quinolin-4-amine]	MAPKAPK2
Cc1cccc(-c2ccc3nccc(Nc4ccc(N5CCC(N(C)C)C5)cc4)c3c2)c1 (stereo not shown) [N-(4-(3-(dimethylamino)pyrrolidin-1-yl)phenyl)-6-m-tolylquinolin-4-amine]	MAPKAPK2
CCN(CC)c1ccc(-c2ccc3nccc(Nc4ccc(N5CCC(N(C)C)C5)cc4)c3c2)cc1 (stereo not shown) [6-(4-(diethylamino)phenyl)-N-(4-(3-(dimethylamino)pyrrolidin-1-yl)phenyl)quinolin-4-amine]	MAPKAPK2
CN(C)C1CCN(c2ccc(Nc3ccnc4ccc(-c5ccc6c(c5)CCC6=O)cc34)cc2)C1 (stereo not shown) [5-(4-(4-(3-(dimethylamino)pyrrolidin-1-yl)phenylamino)quinolin-6-yl)-2,3-dihydroinden-1-one]	MAPKAPK2

Reference: patent US7452887B2, “Quinoline- and isoquinoline-based compounds exhibiting ATP-utilizing enzyme inhibitory activity, and compositions, and uses thereof” (Amphora Discovery Corporation, priority 2004, dated 2008)
